Measurements taken from patent US9713615B2, “Tetrahydroisoquinolin-2-yl-(quinazolin-4-yl)methanone compounds” (Rexahn Pharmaceuticals, Inc., priority 2013, dated 2017).

Experiments:
MKN-45 (stomach) = test: SRB growth inhibition assay, MKN-45; format: cell-based; conditions: Homo sapiens, 96 hours incubation, read-out: Inhibition of cell growth (IC50, μM) MKN-45
Source text: (§1) Cancer cells used in this study to determine the effect of tetrahydroisoquinolin-2-yl-(quinazolin-4-yl)methanone compounds were obtained from the following sources: Human OVCAR-3 (ovary), SK-MEL-28 (melanoma), MDA-MB-231 (breast), HeLa (cervix), PC3 (prostate), HepG2 (liver), A549 (lung), Caki-1 (kidney), HCT116 (colon) and PANC-1 (pancreas) from the American Type Culture Collection (ATCC) (Manassas, Va.); U251 (brain) from Riken (Japan); MKN-45 (stomach) from DSMZ (Germany). All cell lines except MDA-MB-231, HCT116, Caki-1 and PANC-1 were grown in RPMI1640 medium (Invitrogen, Carlsbad, Calif.) supplemented with 10% fetal bovine serum (“FBS”), 1 mM sodium pyruvate, 10 mM HEPES and 100 U/ml penicillin and 100 μg/ml streptomycin (“P/S”). MDA-MB-231, HCT116, Caki-1 and PANC-1 cells were maintained in Dulbecco's modified Eagle's medium (“DMEM”, Invitrogen) supplemented with 10% FBS, P/S, 10 mM HEPES and 2 mM L-glutamine. All cells were incubated at 37° C. under humidified 5% CO2.
(§2) The growth inhibition of the tetrahydroisoquinolin-2-yl-(quinazolin-4-yl)methanone compounds against a variety of human tumor cells was evaluated to study the relative importance of particular substituent groups on the compounds. The tetrahydroisoquinolin-2-yl-(quinazolin-4-yl)methanone compounds, prepared as described above, were tested with DMSO as a control.
(§3) The growth inhibition assay of representative tetrahydroisoquinolin-2-yl-(quinazolin-4-yl)methanone derivatives against human tumor cell lines was performed using the Sulforhodamine B (“SRB”) method (Skehan et al., J. National Cancer Institute, 82: 1107-1112 (1990)). Briefly, exponentially growing tumor cells were seeded into a 96-well plate at a density of 2-3×10^3 cells/well and treated with tetrahydroisoquinolin-2-yl-(quinazolin-4-yl)methanone compounds the next day. Triplicate wells were used for each treatment. The cells were incubated with the various compounds for 96 hours at 37° C. in a humidified 5% CO2 atmosphere. After 96-hour incubation, cells were fixed with 10% trichloroacetic acid (“TCA”), incubated for 1 hour at 4° C., and washed 3 times with tap water. Subsequently, cells were stained with 0.4% sulforhodamine B in 1% acetic acid for 30 minutes, washed 4 times with 1% acetic acid, and air-dried again After 5 minutes agitation in 10 mM Tris solution, the absorbance of each well was measured at 530 nm using Benchmark Plus Microplate reader (Bio-Rad Laboratories, Hercules, Calif.).
(§4) To translate the OD530 values into the number of live cells in each well, the OD530 values were compared to those on standard OD530-versus-cell number curves generated for each cell line. The percent survival was calculated using the formula: % Survival=live cell number [test]/live cell number [control]×100
(§5) The IC50 values were calculated by non-linear regression analysis.

Caki-1 (kidney) = test: SRB growth inhibition assay, Caki-1; format: cell-based, Human; conditions: Homo sapiens, CAKI-1, 96 hours incubation, read-out: Inhibition of cell growth (IC50, μM) Caki-1
Source text: as §1, §2, §3, §4, §5
(§6) The compounds were screened against at […] including PANC-1, MDA-MB-231, HCT116 and Caki-1, at approximately 1 μM concentration. The inhibition of cell growth (IC50, μM) of some tetrahydroisoquinolin-2-yl-(quinazolin-4-yl)methanone compounds are shown in Table 2.

HCT116 (colon) = test: SRB growth inhibition assay, HCT116; format: cell-based, Human; conditions: Homo sapiens, HCT-116, 96 hours incubation, read-out: Inhibition of cell growth (IC50, μM) HCT116
Source text: as §1, §2, §3, §4, §5, §6

U251 (brain) = test: SRB growth inhibition assay, U251; format: cell-based; conditions: Homo sapiens, U-251, 96 hours incubation, read-out: Inhibition of cell growth (IC50, μM) U251
Source text: as §1, §2, §3, §4, §5

OVCAR-3 (ovary) = test: SRB growth inhibition assay, OVCAR-3; format: cell-based; conditions: Homo sapiens, 96 hours incubation, read-out: Inhibition of cell growth (IC50, μM) Ovcar3
Source text: as §1, §2, §3, §4, §5

MDA-MB-231 (breast) = test: SRB growth inhibition assay, MDA-MB-231; format: cell-based, Human; conditions: Homo sapiens, MDA-MB-231, 96 hours incubation, read-out: Inhibition of cell growth (IC50, μM) MDA-MB-231
Source text: as §1, §2, §3, §4, §5, §6

A549 (lung) = test: SRB growth inhibition assay, A549; format: cell-based; conditions: Homo sapiens, 96 hours incubation, read-out: Inhibition of cell growth (IC50, μM) A549
Source text: as §1, §2, §3, §4, §5

HeLa (cervix) = test: SRB growth inhibition assay, HeLa; format: cell-based; conditions: Homo sapiens, 96 hours incubation, read-out: Inhibition of cell growth (IC50, μM) HeLa
Source text: as §1, §2, §3, §4, §5

HepG2 (liver) = test: SRB growth inhibition assay, HepG2; format: cell-based; conditions: Homo sapiens, 96 hours incubation, read-out: Inhibition of cell growth (IC50, μM) HepG2
Source text: as §1, §2, §3, §4, §5

SK-MEL-28 (melanoma) = test: SRB growth inhibition assay, SK-MEL-28; format: cell-based; conditions: Homo sapiens, 96 hours incubation, read-out: Inhibition of cell growth (IC50, μM) SK-MEL-28
Source text: as §1, §2, §3, §4, §5

PANC-1 (pancreas) = test: SRB growth inhibition assay, PANC-1; format: cell-based, Human; conditions: Homo sapiens, PANC-1, 96 hours incubation, read-out: Inhibition of cell growth (IC50, μM) Panc-1
Source text: as §1, §2, §3, §4, §5, §6

PC3 (prostate) = test: SRB growth inhibition assay, PC3; format: cell-based; conditions: Homo sapiens, 96 hours incubation, read-out: Inhibition of cell growth (IC50, μM) PC-3
Source text: as §1, §2, §3, §4, §5

SMILES	IC50 (MKN-45 (stomach))	IC50 (Caki-1 (kidney))	IC50 (HCT116 (colon))	IC50 (U251 (brain))	IC50 (OVCAR-3 (ovary))	IC50 (MDA-MB-231 (breast))	IC50 (A549 (lung))	IC50 (HeLa (cervix))	IC50 (HepG2 (liver))	IC50 (SK-MEL-28 (melanoma))	IC50 (PANC-1 (pancreas))	IC50 (PC3 (prostate))
COc1ccc2c(c1O)CCN(C(=O)c1nc(-c3cccnc3)nc3ccccc13)C2 [Compound 84, 2-[[2-(3-pyridinyl)quinazolin-4-yl]carbonyl]-5-hydroxy-6-methoxy-1,2,3,4-tetrahydroisoquinoline]	0.071 µM	0.093 µM	0.15 µM	0.11 µM	0.14 µM	0.13 µM	0.24 µM	0.15 µM	0.2 µM	0.13 µM	0.15 µM	0.15 µM
COc1ccc2c(c1O)CCN(C(=O)c1nc(-c3ccc(F)cc3)nc3ccc(F)cc13)C2 [Compound 97, 2-[[6-fluoro-2-(4-fluorophenyl)quinazolin-4-yl]carbonyl]-5-hydroxy-6-methoxy-1,2,3,4-tetrahydroisoquinoline]	0.087 µM	0.11 µM	0.17 µM	0.13 µM	0.073 µM	0.16 µM	–	0.16 µM	0.18 µM	0.11 µM	0.13 µM	–
COc1ccc2c(c1O)CCN(C(=O)c1nc(-c3ccncn3)nc3ccccc13)C2 [Compound 70, 2-[[2-(4-pyrimidinyl)quinazolin-4-yl]carbonyl]-5-hydroxy-6-methoxy-1,2,3,4-tetrahydroisoquinoline]	0.058 µM	0.055 µM	0.068 µM	0.064 µM	0.068 µM	0.045 µM	0.11 µM	0.074 µM	0.096 µM	0.059 µM	0.054 µM	0.049 µM
COc1ccc2c(c1O)CCN(C(=O)c1nc(-c3ccccc3)nc3ccccc13)C2 [Compound 17, 2-[[2-phenylquinazolin-4-yl]carbonyl]-5-hydroxy-6-methoxy-1,2,3,4-tetrahydroisoquinoline]	0.063 µM	0.057 µM	0.081 µM	0.067 µM	0.074 µM	0.066 µM	0.15 µM	0.074 µM	0.14 µM	0.069 µM	0.062 µM	0.076 µM
COc1ccc2c(c1O)CCN(C(=O)c1nc(-c3ccc(F)cc3F)nc3ccccc13)C2 [Compound 57, 2-[[2-(2,4-difluorophenyl)quinazolin-4-yl]carbonyl]-5-hydroxy-6-methoxy-1,2,3,4-tetrahydroisoquinoline]	–	0.21 µM	0.22 µM	0.17 µM	0.23 µM	0.17 µM	–	–	0.31 µM	0.2 µM	0.19 µM	0.21 µM
COc1ccc(-c2nc(C(=O)N3CCc4c(ccc(OC)c4O)C3)c3ccccc3n2)cc1 [Compound 22, 2-[[2-(4-methoxylphenyl)quinazolin-4-yl]carbonyl]-5-hydroxy-6-methoxy-1,2,3,4-tetrahydroisoquinoline]	0.055 µM	0.057 µM	0.086 µM	0.069 µM	0.08 µM	0.052 µM	0.15 µM	0.064 µM	0.19 µM	0.072 µM	0.056 µM	0.076 µM
COc1ccc2c(c1OC)CCN(C(=O)c1nc(-c3cscn3)nc3ccccc13)C2 [Compound 81, 2-[[2-(4-thiazolyl)quinazolin-4-yl]carbonyl]-5,6-dimethoxy-1,2,3,4-tetrahydroisoquinoline]	–	1.21 µM	1.26 µM	–	–	1 µM	–	–	–	–	1.43 µM	–
